Measured values published in patent EP2719696A1, “NOVEL KINASE INHIBITORS” (Asinex Limited, priority 2011, dated 2012).

Experiments:
PDGFR-α = PDGFR-α (Homo sapiens, UniProt P16234); assay: Kinase inhibition assay (ELISA); assay type: biochemical; conditions: 1 µM ATP
Procedure: (§1) To determine the interaction of our compounds with tyrosine kinases: PDGFR-α, cKIT, PDGFR-β, VEGFR-2 we used enzyme-linked immunosorbent assay (ELISA).
(§2) Determination plates preparation: The plates are processed by neutravidine for 2 h at 30°C. After washing thrice with TBS/0.1% Tween-20 and blocking with 1% BSA/TBS for 1 h at room temperature (RT) 96-well microtiter plates were washed thrice with TBS/0.1% Tween-20 again.
(§3) Reaction: After addition test compounds (in DMSO, DMSO final concentration - 5%) to reaction buffer (20 mM HEPES, pH 7.5, 15 mM MgCl2, 3 mM MnCl2, 2 mM DTT, 0.2 mM Na3VO4, 0.005% Triton X-100; PDGFR-α,: 0.05 µg/ml, 0.5 µg/ml Poly(G,T)-biotin; PDGFR-β: 0.05 µg/ml, 1 µg/ml Poly(G,T)-biotin; c-KIT: 0.03 µg/ml, 0.15 µg/ml Poly(G,T)-biotin; VEGFR-2: 0.07 µg/ml, 0.05 µg/ml Poly(G,T)-biotin) and preincubation of reaction for 10 min at RT and intensive agitation, ATP solution (PDGFR-α, - 1 µM, PDGFR-β - 0.5 µM, c-KIT - 60 µM, VEGFR-2: - 1.5 µM ATP in reaction buffer per well) was added to initiate reaction. Following incubation of mixture for 1 h at 30°C and intensive agitation the reaction was stopped by stop solution (20 mM HEPES, pH 7.5, 50 mM EDTA).
(§4) Kinase activity determination: The reaction mixture was transferred to determination plate. After mix incubation for 1 h at RT and intensive agitation the plates were washed thrice with TBS/0.1% Tween-20. Following mouse monoclonal 0.05 µg/ml Anti-p-Tyr (PY20) HRP antibodies (Santa Cruz Biotechnology) in PBS/BSA were added for 1 h at RT and intensive agitation. After washing, antibody binding was detected by tetramethylbenzidine (TMB) color development (Sigma). Measurement of A450 nm was carried out after addition of H2SO4

VEGFR-2 = VEGFR-2 (Homo sapiens, UniProt P35968); assay: Kinase inhibition assay (ELISA); assay type: biochemical; conditions: 1.5 µM ATP
Chain of VEGFR-2 (P35968 20-1356, species assumed): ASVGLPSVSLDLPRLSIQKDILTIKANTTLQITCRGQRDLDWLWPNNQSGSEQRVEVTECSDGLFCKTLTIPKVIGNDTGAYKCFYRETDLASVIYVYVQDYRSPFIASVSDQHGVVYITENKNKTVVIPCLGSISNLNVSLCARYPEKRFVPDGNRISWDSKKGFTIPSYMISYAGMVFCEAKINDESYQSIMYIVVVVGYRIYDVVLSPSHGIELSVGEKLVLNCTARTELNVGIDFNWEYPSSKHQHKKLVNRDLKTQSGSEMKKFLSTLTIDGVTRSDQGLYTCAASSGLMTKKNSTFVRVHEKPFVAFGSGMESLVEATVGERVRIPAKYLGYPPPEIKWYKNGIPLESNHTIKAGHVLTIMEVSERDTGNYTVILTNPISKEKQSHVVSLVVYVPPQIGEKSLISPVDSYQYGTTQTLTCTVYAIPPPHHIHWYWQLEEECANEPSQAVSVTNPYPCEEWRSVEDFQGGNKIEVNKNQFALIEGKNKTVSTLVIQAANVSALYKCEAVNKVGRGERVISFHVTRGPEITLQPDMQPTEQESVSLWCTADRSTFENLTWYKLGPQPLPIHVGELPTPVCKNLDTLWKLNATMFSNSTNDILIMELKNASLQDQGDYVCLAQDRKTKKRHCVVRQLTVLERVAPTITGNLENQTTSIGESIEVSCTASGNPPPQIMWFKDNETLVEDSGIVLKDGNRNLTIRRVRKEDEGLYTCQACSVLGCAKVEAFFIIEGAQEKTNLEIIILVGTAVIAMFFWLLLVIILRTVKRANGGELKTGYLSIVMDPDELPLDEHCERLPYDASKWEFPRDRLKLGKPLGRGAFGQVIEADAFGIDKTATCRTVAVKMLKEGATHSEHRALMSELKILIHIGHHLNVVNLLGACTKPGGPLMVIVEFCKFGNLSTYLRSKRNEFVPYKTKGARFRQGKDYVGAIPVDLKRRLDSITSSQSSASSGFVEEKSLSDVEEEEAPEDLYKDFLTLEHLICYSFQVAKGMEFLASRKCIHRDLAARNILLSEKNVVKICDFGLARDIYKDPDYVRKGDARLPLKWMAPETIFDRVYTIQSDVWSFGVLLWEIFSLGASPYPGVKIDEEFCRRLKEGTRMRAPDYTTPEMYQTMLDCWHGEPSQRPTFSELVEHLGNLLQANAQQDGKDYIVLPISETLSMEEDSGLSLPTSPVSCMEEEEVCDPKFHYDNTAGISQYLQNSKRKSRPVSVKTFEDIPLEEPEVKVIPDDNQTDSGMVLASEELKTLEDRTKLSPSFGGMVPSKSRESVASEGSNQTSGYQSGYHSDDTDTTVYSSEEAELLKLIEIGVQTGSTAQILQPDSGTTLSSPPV
Procedure: as §1, §2, §3, §4

cKIT = cKIT (Homo sapiens, UniProt P10721); assay: Kinase inhibition assay (ELISA); assay type: biochemical; conditions: 60 µM ATP
Chain of cKIT (P10721 26-976): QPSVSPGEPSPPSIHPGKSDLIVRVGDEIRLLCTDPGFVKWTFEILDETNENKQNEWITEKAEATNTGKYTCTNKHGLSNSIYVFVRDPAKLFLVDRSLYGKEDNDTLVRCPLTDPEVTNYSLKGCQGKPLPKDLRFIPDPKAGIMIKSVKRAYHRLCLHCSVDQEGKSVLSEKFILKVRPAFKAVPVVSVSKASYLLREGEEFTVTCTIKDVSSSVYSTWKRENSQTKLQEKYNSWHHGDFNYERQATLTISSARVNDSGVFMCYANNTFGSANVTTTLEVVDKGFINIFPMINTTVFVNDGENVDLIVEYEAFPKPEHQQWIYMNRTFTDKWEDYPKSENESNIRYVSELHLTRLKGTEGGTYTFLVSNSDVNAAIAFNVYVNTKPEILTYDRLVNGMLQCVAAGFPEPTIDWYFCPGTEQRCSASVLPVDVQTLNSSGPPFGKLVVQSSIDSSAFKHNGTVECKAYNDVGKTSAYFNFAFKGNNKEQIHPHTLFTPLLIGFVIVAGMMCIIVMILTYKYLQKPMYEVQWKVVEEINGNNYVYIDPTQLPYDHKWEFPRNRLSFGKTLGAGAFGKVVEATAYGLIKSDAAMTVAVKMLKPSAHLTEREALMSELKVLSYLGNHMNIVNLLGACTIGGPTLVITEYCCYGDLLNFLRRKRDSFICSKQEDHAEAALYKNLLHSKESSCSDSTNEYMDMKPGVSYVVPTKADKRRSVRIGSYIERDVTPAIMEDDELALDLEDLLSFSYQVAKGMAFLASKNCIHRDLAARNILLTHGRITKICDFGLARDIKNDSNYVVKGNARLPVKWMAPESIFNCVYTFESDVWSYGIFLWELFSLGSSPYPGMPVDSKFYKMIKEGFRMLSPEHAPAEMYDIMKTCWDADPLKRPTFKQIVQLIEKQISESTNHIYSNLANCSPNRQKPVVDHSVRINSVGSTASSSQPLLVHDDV
Procedure: as §1, §2, §3, §4

A172 = assay: MTT proliferation / cytotoxicity assay; assay type: cell-based, human; conditions: Homo sapiens, A 172, 72 h, glioblastoma cell line
Procedure: (§5) Cell culture. The human cancer cell lines A172, A375, A2780 and U251 were purchased from the American Type Culture Collection. All cells were routinely maintained in DMEM containing 10% fetal bovine serum (Omega Scientific), at 37°C in 5% C02.
(§6) Proliferation assay Inhibition of cell A172, A375, A2780 and U251 cell proliferation was assessed by a MTT assay (MTT = Thiazolyl Blue Tetrazolium Bromide) . Cells were inoculated into 96-well microtiter plates containing 0.5% fetal calf serum and incubated at 37°C, 5% CO2, 95% air, and 100% relative humidity for 24 h prior to addition of testing compounds. Following compounds addition, the plates were incubated for an additional 72 h before processing to measure the cell population. Each compound was tested at eight different concentrations in triplicate, as was a control sample. Growth inhibition of 50% (IC50) is calculated by analysis of the data in Prizm3.4 software.
(§7) Table 8 lists IC50 values for inhibition of growth of several cancer cell lines, including the glioblastoma cell lines A172 and U251, measured in a MTT cytotoxicity assay. Table 8. Data of cytotoxicity assay (MTT) for several cancer cell lines, IC50 [µM]

A2780 = assay: MTT proliferation / cytotoxicity assay; assay type: cell-based, human; conditions: Homo sapiens, A2780, 72 h
Procedure: as §5, §6, §7

A375 = assay: MTT proliferation / cytotoxicity assay; assay type: cell-based, human; conditions: Homo sapiens, A-375, 72 h
Procedure: as §5, §6, §7

U251 = assay: MTT proliferation / cytotoxicity assay; assay type: cell-based, human; conditions: Homo sapiens, U-251, 72 h, glioblastoma cell line
Procedure: as §5, §6, §7

Chain of PDGFR-α (P16234 24-1089, species assumed): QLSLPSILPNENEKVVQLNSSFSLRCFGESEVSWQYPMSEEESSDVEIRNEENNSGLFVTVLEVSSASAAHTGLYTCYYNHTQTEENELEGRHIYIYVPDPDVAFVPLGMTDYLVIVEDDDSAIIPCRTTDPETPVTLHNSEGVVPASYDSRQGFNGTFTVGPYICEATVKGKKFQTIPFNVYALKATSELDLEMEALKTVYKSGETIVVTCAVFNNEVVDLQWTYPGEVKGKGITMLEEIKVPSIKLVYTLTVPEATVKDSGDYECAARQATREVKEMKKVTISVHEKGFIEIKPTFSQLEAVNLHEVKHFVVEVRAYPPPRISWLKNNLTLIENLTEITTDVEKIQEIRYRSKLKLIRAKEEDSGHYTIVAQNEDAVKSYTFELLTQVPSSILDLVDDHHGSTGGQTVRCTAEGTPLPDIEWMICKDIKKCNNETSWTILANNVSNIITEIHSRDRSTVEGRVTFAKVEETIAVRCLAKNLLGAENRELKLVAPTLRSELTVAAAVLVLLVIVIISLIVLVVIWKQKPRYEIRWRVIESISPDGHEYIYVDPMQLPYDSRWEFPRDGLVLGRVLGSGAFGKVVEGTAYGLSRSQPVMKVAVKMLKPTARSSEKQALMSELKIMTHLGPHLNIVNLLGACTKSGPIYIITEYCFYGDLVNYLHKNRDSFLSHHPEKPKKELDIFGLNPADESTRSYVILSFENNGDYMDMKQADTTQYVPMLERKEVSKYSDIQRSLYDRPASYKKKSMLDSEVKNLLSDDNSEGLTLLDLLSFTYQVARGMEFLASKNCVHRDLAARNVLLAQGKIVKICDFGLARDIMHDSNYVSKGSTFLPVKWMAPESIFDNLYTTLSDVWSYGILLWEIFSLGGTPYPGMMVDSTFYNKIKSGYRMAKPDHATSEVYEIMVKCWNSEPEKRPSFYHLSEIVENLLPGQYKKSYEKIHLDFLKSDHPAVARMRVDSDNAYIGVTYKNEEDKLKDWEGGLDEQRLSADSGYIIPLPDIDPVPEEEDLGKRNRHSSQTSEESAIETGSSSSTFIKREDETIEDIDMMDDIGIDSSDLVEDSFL

Compound	IC50 (PDGFR-α)	IC50 (VEGFR-2)	IC50 (cKIT)	IC50 (A172)	IC50 (A2780)	IC50 (A375)	IC50 (U251)
Fc1ccc(-c2cnc(Nc3cc(CC4CCNCC4)ccn3)s2)cc1 [Example 001, [5-(4-Fluoro-phenyl)-thiazol-2-yl]-(4-piperidin-4-ylmethyl-pyridin-2-yl)-amine]	< 10 nM	> 10 nM	< 10 nM	> 10 µM	> 1 µM	> 1 µM	> 1 µM
CC(=O)N1CCC(Cc2ccnc(Nc3ncc(-c4ccc(F)cc4)s3)c2)CC1 [Example 002, 1-(4-{2-[5-(4-Fluoro-phenyl)-thiazol-2-ylamino]-pyridin-4-ylmethyl}-piperidin-1-yl)-ethanone]	< 10 nM	> 10 nM	< 10 nM	> 1 µM	> 1 µM	> 1 µM	> 10 µM
CN1CCC(Cc2ccnc(Nc3ncc(-c4ccc(F)cc4)s3)c2)CC1 [Example 004, [5-(4-Fluoro-phenyl)-thiazol-2-yl]-[4-(1-methyl-piperidin-4-ylmethyl)-pyridin-2-yl]-amine]	–	–	–	> 1 µM	> 1 µM	> 1 µM	> 10 µM
CS(=O)(=O)N1CCC(Cc2ccnc(Nc3ncc(-c4ccc(F)cc4)s3)c2)CC1 [Example 005, [5-(4-Fluoro-phenyl)-thiazol-2-yl]-[4-(1-methanesulfonyl-piperidin-4-ylmethyl)-pyridin-2-yl]-amine]	< 10 nM	> 10 nM	> 10 nM	> 1 µM	> 1 µM	> 1 µM	> 10 µM
Fc1ccc(-c2cnc(Nc3cccc(CC4CCCNCC4)n3)s2)cc1 (centres unmarked) [Example 006, (6-Azepan-4-ylmethyl-pyridin-2-yl)-[5-(4-fluoro-phenyl)-thiazol-2-yl]-amine]	> 10 nM	> 100 nM	> 10 nM	> 1 µM	≤ 1 µM	≤ 1 µM	> 1 µM
CC(=O)N1CCCC(Cc2cccc(Nc3ncc(-c4ccc(F)cc4)s3)n2)CC1 (centres unmarked) [Example 007, 1-(4-{6-[5-(4-Fluoro-phenyl)-thiazol-2-ylamino]-pyridin-2-ylmethyl}-azepan-1-yl)-ethanone]	> 10 nM	> 100 nM	> 10 nM	> 1 µM	> 1 µM	> 1 µM	> 1 µM
CN1CCCC(Cc2cccc(Nc3ncc(-c4ccc(F)cc4)s3)n2)CC1 (centres unmarked) [Example 008, [5-(4-Fluoro-phenyl)-thiazol-2-yl]-[6-(1-methyl-azepan-4-ylmethyl)-pyridin-2-yl]-amine]	> 10 nM	> 1000 nM	> 10 nM	> 10 µM	> 1 µM	> 1 µM	> 1 µM
CN1CCOCC(Cc2ccnc(Nc3ncc(-c4ccc(F)cc4)s3)c2)C1 (centres unmarked) [Example 010, [5-(4-Fluoro-phenyl)-thiazol-2-yl]-[4-(4-methyl-[1,4]oxazepan-6-ylmethyl)-pyridin-2-yl]-amine]	–	–	–	> 1 µM	> 1 µM	> 1 µM	> 10 µM
CC(=O)N1CCOCC(Cc2ccnc(Nc3ncc(-c4ccc(F)cc4)s3)c2)C1 (centres unmarked) [Example 012, 1-(6-{2-[5-(4-Fluoro-phenyl)-thiazol-2-ylamino]-pyridin-4-ylmethyl}-[1,4]oxazepan-4-yl)-ethanone]	< 10 nM	> 10 nM	> 10 nM	> 1 µM	> 1 µM	> 1 µM	> 10 µM
c1ccc(-c2cnc(Nc3cc(CCC4CCCN4)ccn3)s2)cc1 (centres unmarked) [Example 015, (5-Phenyl-thiazol-2-yl)-[4-(2-pyrrolidin-2-yl-ethyl)-pyridin-2-yl]-amine]	< 10 nM	> 10 nM	> 100 nM	> 1 µM	> 1 µM	> 1 µM	> 10 µM
c1ccc(-c2cnc(Nc3cccc(CC4CC5CCC(C4)N5)n3)s2)cc1 (centres unmarked) [Example 022, [6-(8-Aza-bicy-clo[3.2.1]oct-3-ylmethyl)-pyridin-2-yl]-(5-phenyl-thiazol-2-yl)-amine]	> 10 nM	> 100 nM	> 10 nM	> 1 µM	≤ 1 µM	≤ 1 µM	> 1 µM
c1ccc(-c2cnc(Nc3cc(CC4CCCNCC4)ccn3)s2)cc1 (centres unmarked) [Example 026, (4-Azepan-4-ylmethyl-pyridin-2-yl)-(5-phenyl-thiazol-2-yl)-amine]	–	–	–	> 1 µM	≤ 1 µM	> 1 µM	> 10 µM
c1ccc(-c2cnc(Nc3cc(C4CCCNC4)ccn3)s2)cc1 (centres unmarked) [Example 028, (1,2,3,4,5,6-Hexahydro-[3,4']bipyridinyl-2'-yl)-(5-phenyl-thiazol-2-yl)-amine]	< 10 nM	32 nM	> 100 nM	> 1 µM	> 1 µM	> 10 µM	> 10 µM
Cc1cc(Nc2ncc(-c3ccccc3)s2)nc(C2CCN(CCO)CC2)n1 [Example 029, 2-{4-[4-Methyl-6-(5-phenyl-thiazol-2-ylamino)-pyrimidin-2-yl]-piperidin-1-yl}-ethanol]	> 10 nM	> 100 nM	< 10 nM	≤ 1 µM	≤ 1 µM	–	> 1 µM
Cc1nc(Nc2ncc(-c3ccccc3)s2)cc(C2CCN(C(=O)C(C)(C)N)CC2)n1 [Example 031, 2-Amino-2-methyl-1-{4-[2-methyl-6-(5-phenyl-thiazol-2-ylamino)-pyrimidin-4-yl]-piperidin-1-yl}-propan-1-one]	< 10 nM	> 10 nM	> 10 nM	> 1 µM	> 1 µM	–	> 10 µM
OCCN1CCC(c2cc(Nc3ncc(-c4ccccc4)s3)ccn2)CC1 [Example 033, 2-[4-(5-Phenyl-thiazol-2-ylamino)-3',4',5',6'-tetrahydro-2'H-[2,4']bipyridinyl-1'-yl]-ethanol]	> 10 nM	> 100 nM	> 100 nM	> 10 µM	> 10 µM	> 10 µM	> 10 µM
OCCN1CCC(c2ccnc(Nc3ncc(-c4ccccc4F)s3)c2)CC1 [Example 036, 2-{2'-[5-(2-Fluoro-phenyl)-thiazol-2-ylamino]-3,4,5,6-tetrahydro-2H-[4,4']bipyridinyl-1-yl}-ethanol]	< 10 nM	> 10 nM	< 10 nM	> 10 µM	> 1 µM	> 1 µM	> 1 µM
CCCc1cnc(Nc2cccc(C3CCN(C(=O)C(C)(C)N)CC3)n2)s1 [Example 041, 2-Amino-2-methyl-1-[6-(5-propyl-thiazol-2-ylamino)-3',4',5',6'-tetrahydro-2'H-[2,4']bipyridinyl-1'-yl]-propan-1-one]	–	–	> 100 nM	–	≤ 1 µM	> 1 µM	–
CC(C)(C)Cc1cnc(Nc2cccc(C3CCN(C(=O)C(C)(C)N)CC3)n2)s1 [Example 047, 2-Amino-1-{6-[5-(2,2-dimethylpropyl)-thiazol-2-ylamino]-3',4',5',6'-tetrahydro-2'H-[2,4']bipyridinyl-1'-yl}-2-methyl-propan-1-one]	> 100 nM	> 100 nM	> 1000 nM	–	≤ 1 µM	> 1 µM	–
